Data taken from ChEMBL document CHEMBL6087462, “Cuminaldehyde Potentiates Antiproteolytic Peptide Efficacy via Parallel Pathways of Enhanced Inner Membrane-Damaging Activity and Inhibition of Bacterial Energy Metabolism” (J Med Chem, 2025).
Activity calls are given as the source filed them. The rule behind the calls is not given here.

What was measured:
RAW264.7 = assay: Cytotoxicity against mouse RAW264.7 cells assessed as cell death incubated for 4 hrs by MTT assay; assay type: toxicity, cell-based; conditions: raw264.7, 4 h
HEK-293T = assay: Cytotoxicity against human HEK293T cells assessed as cell death incubated for 4 hrs by MTT assay; assay type: toxicity, cell-based
[1] = Cytotoxicity against porcine IPEC-J2 cells assessed as cell death incubated for 4 hrs by MTT assay; assay type: toxicity, cell-based, Sus scrofa; conditions: pig, ipec-j2, 4 h
[2] = Acute toxicity in C57BL/6 mouse assessed as lethal dose measured for 5 days; conditions: in vivo, time 5 day
[3] = Acute toxicity in C57BL/6 mouse assessed as animal survival at 80 mg/kg, po measured for 5 days; assay type: organism-based; conditions: in vivo, 120 h, time 5 day
[4] = Acute toxicity in C57BL/6 mouse assessed as animal survival at 40 mg/kg, po measured for 5 days; assay type: organism-based; conditions: in vivo, 120 h, time 5 day
[5] = Acute toxicity in C57BL/6 mouse assessed as ruffled fur at 80 mg/kg, po measured for 5 days; assay type: organism-based; conditions: in vivo, 120 h, time 5 day
[6] = Subacute toxicity in C57BL/6 mouse assessed as reduction in body weight loss at 125 mg/kg, po administered for 3 days; assay type: organism-based; conditions: in vivo, 72 h, time 3 day
[7] = Subacute toxicity in C57BL/6 mouse assessed as change in liver weight at 125 mg/kg, po administered for 3 days; assay type: organism-based; conditions: in vivo, 72 h, time 3 day
[8] = Subacute toxicity in C57BL/6 mouse assessed as change in kidney weight at 125 mg/kg, po administered for 3 days; assay type: organism-based; conditions: in vivo, 72 h, time 3 day
[9] = Subacute toxicity in C57BL/6 mouse assessed as change in spleen weight at 125 mg/kg, po administered for 3 days; assay type: organism-based; conditions: in vivo, 72 h, time 3 day
[10] = Subacute toxicity in C57BL/6 mouse assessed as change in BUN level at 125 mg/kg, po administered for 3 days; assay type: organism-based; conditions: in vivo, 72 h, time 3 day
[11] = Subacute toxicity in C57BL/6 mouse assessed as change in CREA level at 125 mg/kg, po administered for 3 days; assay type: organism-based; conditions: in vivo, 72 h, time 3 day
[12] = Subacute toxicity in C57BL/6 mouse assessed as change in ALT level at 125 mg/kg, po administered for 3 days; assay type: organism-based; conditions: in vivo, 72 h, time 3 day
Escherichia coli [13] = assay: Antimicrobial activity against Escherichia coli ATCC 25922 assessed as reduction in microbial growth in presence of Na+; assay type: functional, organism-based
Escherichia coli [14] = assay: Antimicrobial activity against Escherichia coli ATCC 25922 assessed as reduction in microbial growth in presence of Ca+; assay type: functional, organism-based
Escherichia coli [15] = assay: Bactericidal activity against Escherichia coli K88 at 0.5 times MIC incubated for 24 hrs by time kill assay; assay type: functional, organism-based
Pseudomonas aeruginosa [16] = assay: Bactericidal activity against Pseudomonas aeruginosa 27853 at 0.5 times MIC incubated for 24 hrs by time kill assay; assay type: functional, organism-based
Salmonella typhimurium [17] = assay: Bactericidal activity against Salmonella typhimurium ATCC 14028 at 0.5 times MIC incubated for 24 hrs by time kill assay; assay type: functional, organism-based; conditions: Salmonella enterica subsp. enterica serovar Typhimurium
Klebsiella pneumoniae [18] = assay: Bactericidal activity against Klebsiella pneumoniae at 0.5 times MIC incubated for 24 hrs by time kill assay; assay type: functional, organism-based
Acinetobacter baumannii [19] = assay: Bactericidal activity against Acinetobacter baumannii at 0.5 times MIC incubated for 24 hrs by time kill assay; assay type: functional, organism-based
Staphylococcus aureus [20] = assay: Bactericidal activity against Staphylococcus aureus ATCC 25923 at 0.5 times MIC incubated for 24 hrs by time kill assay; assay type: functional, organism-based
[21] = system: Staphylococcus epidermidis; assay: Bactericidal activity against Staphylococcus epidermidis ATCC 12228 at 0.5 times MIC incubated for 24 hrs by time kill assay; assay type: functional, organism-based
Enterococcus faecalis [22] = assay: Bactericidal activity against Enterococcus faecalis ATCC […] at 0.5 times MIC incubated for 24 hrs by time kill assay; assay type: functional, organism-based
Streptococcus agalactiae [23] = assay: Bactericidal activity against Streptococcus agalactiae CICC 10465 at 0.5 times MIC incubated for 24 hrs by time kill assay; assay type: functional, organism-based
Escherichia coli [24] = assay: Synergistic bactericidal activity against Escherichia coli K88 at 0.5 times MIC incubated for 24 hrs in presence of cuminaldehyde by time kill assay; assay type: functional, organism-based
Pseudomonas aeruginosa [25] = assay: Synergistic bactericidal activity against Pseudomonas aeruginosa 27853 at 0.5 times MIC incubated for 24 hrs in presence of cuminaldehyde by time kill assay; assay type: functional, organism-based
Salmonella typhimurium [26] = assay: Synergistic bactericidal activity against Salmonella typhimurium ATCC 14028 at 0.5 times MIC incubated for 24 hrs in presence of cuminaldehyde by time kill assay; assay type: functional, organism-based; conditions: Salmonella enterica subsp. enterica serovar Typhimurium
Klebsiella pneumoniae [27] = assay: Synergistic bactericidal activity against Klebsiella pneumoniae at 0.5 times MIC incubated for 24 hrs in presence of cuminaldehyde by time kill assay; assay type: functional, organism-based
Acinetobacter baumannii [28] = assay: Synergistic bactericidal activity against Acinetobacter baumannii at 0.5 times MIC incubated for 24 hrs in presence of cuminaldehyde by time kill assay; assay type: functional, organism-based
Staphylococcus aureus [29] = assay: Synergistic bactericidal activity Staphylococcus aureus ATCC 25923 at 0.5 times MIC incubated for 24 hrs in presence of cuminaldehyde by time kill assay; assay type: functional, organism-based
[30] = system: Staphylococcus epidermidis; assay: Synergistic bactericidal activity Staphylococcus epidermidis ATCC 12228 at 0.5 times MIC incubated for 24 hrs in presence of cuminaldehyde by time kill assay; assay type: functional, organism-based
Enterococcus faecalis [31] = assay: Synergistic bactericidal activity Enterococcus faecalis ATCC 29212 at 0.5 times MIC incubated for 24 hrs in presence of cuminaldehyde by time kill assay; assay type: functional, organism-based
Streptococcus agalactiae [32] = assay: Synergistic bactericidal activity Streptococcus agalactiae CICC 10465 at 0.5 times MIC incubated for 24 hrs in presence of cuminaldehyde by time kill assay; assay type: functional, organism-based
Escherichia coli [33] = assay: Antimicrobial activity against Escherichia coli ATCC 25922 assessed as reduction in microbial growth in presence of Mg+; assay type: functional, organism-based
Escherichia coli [34] = assay: Antimicrobial activity against Escherichia coli ATCC 25922 assessed as reduction in microbial growth in presence of SGF; assay type: functional, organism-based
Escherichia coli [35] = assay: Antimicrobial activity against Escherichia coli ATCC 25922 assessed as reduction in microbial growth in presence of SIF; assay type: functional, organism-based
Escherichia coli [36] = assay: Antimicrobial activity against Escherichia coli ATCC 25922 assessed as reduction in microbial growth in presence of LPS; assay type: functional, organism-based
Cell membrane [37] = assay: Induction of outer membrane permeabilization in Escherichia coli ATCC 25922 by NPN-dye based assay; assay type: subcellular
Cell membrane [38] = assay: Induction of outer membrane permeabilization in Escherichia coli ATCC 25922 in presence of cuminaldehyde by NPN-dye based assay; assay type: subcellular
Cell membrane [39] = assay: Induction of cytoplasmic membrane depolarization in Escherichia coli ATCC 25922 by DiSC3(5) dye-based fluorescence assay; assay type: subcellular
Cell membrane [40] = assay: Induction of cytoplasmic membrane depolarization in Escherichia coli ATCC 25922 assessed as increase in fluorescence intensity in presence of cuminaldehyde by DiSC3(5) dye-based fluorescence assay
Escherichia coli [41] = assay: Induction of ROS accumulation in Escherichia coli ATCC 25922 at 0.5 to 1 time MIC; assay type: functional, organism-based
Escherichia coli [42] = assay: Induction of ROS accumulation in Escherichia coli ATCC 25922 at 0.5 to 1 time MIC in presence of cuminaldehyde; assay type: functional, organism-based
Escherichia coli [43] = assay: Upregulation of intracellular ATP level in Escherichia coli ATCC 25922 at 0.5 to 1 times MIC; assay type: functional, organism-based
Escherichia coli [44] = assay: Upregulation of intracellular ATP level in Escherichia coli ATCC 25922 at 0.5 to 1 times MIC in presence of cuminaldehyde; assay type: functional, organism-based
Escherichia coli [45] = assay: Antibacterial activity against Escherichia coli infected in K88-induced enteritis mouse model assessed as reduction in diarrhea score at 50 mg/kg, ip administered every 12 hrs for 2 days; assay type: functional, organism-based; conditions: time 2.0 day
Escherichia coli [46] = assay: Antibacterial activity against Escherichia coli infected in K88-induced enteritis mouse model assessed as reduction in number of colonies in ileum at 50 mg/kg, ip administered every 12 hrs for 2 days; assay type: functional, organism-based; conditions: time 2.0 day
Escherichia coli [47] = assay: Antibacterial activity against Escherichia coli infected in K88-induced enteritis mouse model assessed as reduction in number of colonies in colon at 50 mg/kg, ip administered every 12 hrs for 2 days; assay type: functional, organism-based; conditions: time 2.0 day
Escherichia coli [48] = assay: Antibacterial activity against Escherichia coli infected in K88-induced enteritis mouse model assessed as reduction in number of colonies in feces at 50 mg/kg, ip administered every 12 hrs for 2 days; assay type: functional, organism-based; conditions: time 2.0 day
Mus musculus [49] = species: Mus musculus; assay: Anti-inflammatory activity in ETEC-induced enteritis mouse model assessed as decrease in IL-6 level in colon by ELISA analysis; assay type: functional, organism-based
Mus musculus [50] = species: Mus musculus; assay: Anti-inflammatory activity in ETEC-induced enteritis mouse model assessed as decrease in TNF-alpha level in colon by ELISA analysis; assay type: functional, organism-based
Mus musculus [51] = species: Mus musculus; assay: Anti-inflammatory activity in ETEC-induced enteritis mouse model assessed as decrease in IL-1beta level in colon by ELISA analysis; assay type: functional, organism-based
Mus musculus [52] = species: Mus musculus; assay: Anti-inflammatory activity in ETEC-induced enteritis mouse model assessed as structural changes in intestine by H and E staining based analysis; assay type: functional, organism-based

## CC[C@H](C)[C@H](NC(=O)[C@@H](NC(=O)[C@@H](CCCNC(=N)N)NC(=O)[C@H](C)NC(=O)[C@H](C)NC(=O)[C@@H](N)Cc1cccc2ccccc12)[C@@H](C)CC)C(=O)N[C@@H](CC(C)C)C(=O)N[C@H](CCCNC(=N)N)C(=O)N[C@@H](Cc1c[nH]c2ccccc12)C(=O)N[C@H](CCCNC(=N)N)C(=O)N[C@@H](Cc1ccccc1)C(=O)N[C@@H](CCCNC(=N)N)C(=O)O
RAW264.7
  Activity: < 50%
HEK-293T
  Activity: < 50%
[1]
  Activity: < 50%
[2]
  LD50 at 120 h: 1010 mg/kg
[3]
  Activity: Non-toxic
[4]
  Activity: Non-toxic
[5]
  Activity: Non-toxic
[6]
  Activity: Non-toxic
[7]
  Activity: Non-toxic
[8]
  Activity: Non-toxic
[9]
  Activity: Non-toxic
[10]
  Activity: Non-toxic
[11]
  Activity: Non-toxic
[12]
  Activity: Non-toxic

## CC[C@H](C)[C@H](NC(=O)[C@@H](NC(=O)[C@@H](CCCNC(=N)N)NC(=O)[C@H](C)NC(=O)[C@H](C)NC(=O)C(N)Cc1cccc2ccccc12)[C@@H](C)CC)C(=O)N[C@@H](CC(C)C)C(=O)N[C@H](CCCNC(=N)N)C(=O)N[C@@H](Cc1c[nH]c2ccccc12)C(=O)N[C@H](CCCNC(=N)N)C(=O)N[C@@H](Cc1ccccc1)C(=O)N[C@@H](CCCNC(=N)N)C(=O)O (some centres undefined)
Escherichia coli [13]
  Activity: Active
Escherichia coli [14]
  Activity: Active
Escherichia coli [15]
  Activity: Active
Pseudomonas aeruginosa [16]
  Activity: Active
Salmonella typhimurium [17]
  Activity: Active
Klebsiella pneumoniae [18]
  Activity: Active
Acinetobacter baumannii [19]
  Activity: Active
Staphylococcus aureus [20]
  Activity: Active
[21]
  Activity: Active
Enterococcus faecalis [22]
  Activity: Active
Streptococcus agalactiae [23]
  Activity: Active
Escherichia coli [24]
  Activity: Active
Pseudomonas aeruginosa [25]
  Activity: Active
Salmonella typhimurium [26]
  Activity: Active
Klebsiella pneumoniae [27]
  Activity: Active
Acinetobacter baumannii [28]
  Activity: Active
Staphylococcus aureus [29]
  Activity: Active
[30]
  Activity: Active
Enterococcus faecalis [31]
  Activity: Active
Streptococcus agalactiae [32]
  Activity: Active
Escherichia coli [33]
  Activity: Active
Escherichia coli [34]
  Activity: Active
Escherichia coli [35]
  Activity: Active
Escherichia coli [36]
  Activity: Active
Cell membrane [37]
  Activity: inactive
Cell membrane [38]
  Activity: Active
Cell membrane [39]
  Activity: Dose-dependent-effect
Cell membrane [40]
  Activity: Active
Escherichia coli [41]
  Activity: Active
Escherichia coli [42]
  Activity: Active
Escherichia coli [43]
  Activity: Active
Escherichia coli [44]
  Activity: Active
Escherichia coli [45]
  Activity: Active
Escherichia coli [46]
  Activity: Active
Escherichia coli [47]
  Activity: Active
Escherichia coli [48]
  Activity: Active
Mus musculus [49]
  Activity: Active
Mus musculus [50]
  Activity: Active
Mus musculus [51]
  Activity: Active
Mus musculus [52]
  Activity: Active
